Reference: PubChem BioAssay AID328 (DTP/NCI, 2004)
Values joined by “and” are separate entries in the source; they are usually repeats but may differ in a detail not shown here. Equal values may be shown once. Inconclusive results and toxic doses are left out. How the source made its calls: active means survival T/C of 150% or more; inactive means T/C below 125% in these data.

System: BDF1 mice, P388 leukemia ip, median survival T/C
Experiment: NCI In Vivo Anticancer Drug Screen. Data for tumor model P388 Leukemia (intraperitoneal) in B6D2F1 (BDF1) mice
Conditions: endpoint: median survival time, higher = longer survival
Outline: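 In tumour-bearing mice, survival after compound treatment is set against the vehicle group and given as a quotient.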

[1] = dose: 6.25 mg/kg/injection, schedule: Q01DX009 (ip), vehicle: saline with Tween-80
[2] = dose: 12.5 mg/kg/injection, schedule: Q01DX009 (ip), vehicle: saline with Tween-80
[3] = dose: 25.0 mg/kg/injection, schedule: Q01DX009 (ip), vehicle: saline with Tween-80
[4] = dose: 25.0 mg/kg/injection, schedule: Q04DX003 (ip), vehicle: saline with Tween-80
[5] = dose: 50.0 mg/kg/injection, schedule: Q01DX009 (ip), vehicle: saline with Tween-80
[6] = dose: 100.0 mg/kg/injection, schedule: Q01DX009 (ip), vehicle: saline with Tween-80
[7] = dose: 100.0 mg/kg/injection, schedule: Q04DX003 (ip), vehicle: saline with Tween-80
[8] = dose: 200.0 mg/kg/injection, schedule: Q01DX009 (ip), vehicle: saline with Tween-80
[9] = dose: 200.0 mg/kg/injection, schedule: Q04DX003 (ip), vehicle: saline with Tween-80
[10] = dose: 100.0 mg/kg/injection, schedule: Q04DX003 (ip), vehicle: saline
[11] = dose: 200.0 mg/kg/injection, schedule: Q04DX003 (ip), vehicle: saline
[12] = dose: 100.0 mg/kg/injection, schedule: Q01DX009 (ip), vehicle: saline
[13] = dose: 400.0 mg/kg/injection, schedule: Q04DX003 (ip), vehicle: saline
[14] = dose: 12.5 mg/kg/injection, schedule: Q04DX003 (ip), vehicle: saline
[15] = dose: 25.0 mg/kg/injection, schedule: Q04DX003 (ip), vehicle: saline
[16] = dose: 50.0 mg/kg/injection, schedule: Q04DX003 (ip), vehicle: saline

Measured: T/C

c1ccc(-c2cc(-c3ccccc3)[s+]s2)cc1
inactive: [1] 111 % of control | [2] 117 % of control and 124 % of control | [3] 91 % of control and 110 % of control and 115 % of control | [4] 98 % of control | [5] 92 % of control and 113 % of control | dose: 50.0 mg/kg/injection, schedule: Q04DX003 (ip), vehicle: saline with Tween-80 109 % of control and 115 % of control | [6] 98 % of control and 113 % of control | [7] 117 % of control and 118 % of control | [8] 99 % of control and 120 % of control | [9] 108 % of control | dose: 300.0 mg/kg/injection, schedule: Q01DX009 (ip), vehicle: saline with Tween-80 94 % of control

CN(C)CSCN(C)C
inactive: [3] 100 % of control | [5] 111 % of control | [6] 102 % of control

N#C/C1=C(\N)CCCOCCCOCCCOCCCOCCCOCC1
inactive: [10] 97 % of control | [11] 92 % of control

CC1CCCCC1(O)CSc1ccccc1 (stereo not given)
inactive: [2] 100 % of control and 106 % of control | [3] 102 % of control and 116 % of control | [5] 103 % of control and 113 % of control | [6] 116 % of control (2×) and 124 % of control | [8] 101 % of control

CC12CCC(O)CC1CCC1C2CCC2(C)C(c3ccc(=O)oc3)C(O)C3OC132 (stereo not given)
inactive: dose: 3.5 mg/kg/injection, schedule: Q01DX009 (ip), vehicle: Klucel (hydroxypropylcellulose) (HPC) 100 % of control | dose: 7.0 mg/kg/injection, schedule: Q01DX009 (ip), vehicle: Klucel (hydroxypropylcellulose) (HPC) 102 % of control

CCN(C(=S)Nc1cccc(OC)c1)c1ccccc1
inactive: [5] 101 % of control | [6] 99 % of control | [8] 101 % of control

Clc1nnc(Cl)c(Cl)c1Cl
inactive: dose: 0.22 mg/kg/injection, schedule: Q01DX009 (ip), vehicle: Klucel (hydroxypropylcellulose) (HPC) 100 % of control | dose: 0.22 mg/kg/injection, schedule: Q04DX003 (ip), vehicle: Klucel (hydroxypropylcellulose) (HPC) 100 % of control | dose: 0.45 mg/kg/injection, schedule: Q01DX009 (ip), vehicle: Klucel (hydroxypropylcellulose) (HPC) 91 % of control | dose: 0.45 mg/kg/injection, schedule: Q04DX003 (ip), vehicle: Klucel (hydroxypropylcellulose) (HPC) 118 % of control | dose: 0.9 mg/kg/injection, schedule: Q01DX009 (ip), vehicle: Klucel (hydroxypropylcellulose) (HPC) 91 % of control | dose: 0.9 mg/kg/injection, schedule: Q04DX003 (ip), vehicle: Klucel (hydroxypropylcellulose) (HPC) 104 % of control | dose: 1.3 mg/kg/injection, schedule: Q04DX003 (ip), vehicle: Klucel (hydroxypropylcellulose) (HPC) 104 % of control | dose: 2.0 mg/kg/injection, schedule: Q04DX003 (ip), vehicle: Klucel (hydroxypropylcellulose) (HPC) 113 % of control | dose: 2.8 mg/kg/injection, schedule: Q01DX009 (ip), vehicle: saline 87 % of control | dose: 3.0 mg/kg/injection, schedule: Q04DX003 (ip), vehicle: Klucel (hydroxypropylcellulose) (HPC) 104 % of control

[CH3][Sn]([CH3])([CH3])[O]C(=O)CCl
inactive: dose: 0.75 mg/kg/injection, schedule: Q01DX009 (ip), vehicle: saline 120 % of control | dose: 1.5 mg/kg/injection, schedule: Q01DX009 (ip), vehicle: saline 106 % of control

CCCCCCCCCCCC1=NC(CO)(CO)CO1
inactive: dose: 100.0 mg/kg/injection, schedule: Q01DX001 (ip), vehicle: saline with Tween-80 100 % of control | dose: 200.0 mg/kg/injection, schedule: Q01DX001 (ip), vehicle: saline with Tween-80 104 % of control | dose: 400.0 mg/kg/injection, schedule: Q01DX001 (ip), vehicle: saline with Tween-80 100 % of control

O=C(O)C1CCC[N-]C1.O=C(O)C1CCC[N-]C1.O=C(O)C1CCC[N-]C1.O=C(O)C1CCC[N-]C1.[Cl][Rh][Cl] (stereo not given)
inactive: dose: 4.0 mg/kg/injection, schedule: Q01DX009 (ip), vehicle: saline 100 % of control | dose: 8.0 mg/kg/injection, schedule: Q01DX009 (ip), vehicle: saline 99 % of control | dose: 10.0 mg/kg/injection, schedule: Q01DX009 (ip), vehicle: saline 118 % of control | dose: 16.0 mg/kg/injection, schedule: Q01DX009 (ip), vehicle: saline 93 % of control | dose: 20.0 mg/kg/injection, schedule: Q01DX009 (ip), vehicle: saline 98 % of control | dose: 40.0 mg/kg/injection, schedule: Q01DX009 (ip), vehicle: saline 98 % of control | dose: 50.0 mg/kg/injection, schedule: Q01DX009 (ip), vehicle: saline 100 % of control | [12] 86 % of control | [10] 100 % of control | [11] 108 % of control | [13] 102 % of control

O=C(NCCCCN1CC1)C(=O)NCCCCN1CC1
active: dose: 6.25 mg/kg/injection, schedule: Q04DX003 (ip), vehicle: Klucel (hydroxypropylcellulose) (HPC) 188 % of control | dose: 12.5 mg/kg/injection, schedule: Q04DX003 (ip), vehicle: Klucel (hydroxypropylcellulose) (HPC) 188 % of control | dose: 25.0 mg/kg/injection, schedule: Q04DX003 (ip), vehicle: Klucel (hydroxypropylcellulose) (HPC) 221 % of control

O=C(Nc1ccc(C(=O)Nc2ccc(C3=NCCCN3)cc2)cc1)Nc1ccc(C2=NCCCN2)cc1
active: [4] 245 % of control and 163 % of control | dose: 37.5 mg/kg/injection, schedule: Q04DX003 (ip), vehicle: saline with Tween-80 159 % of control and 186 % of control
122 % of control and 204 % of control: dose: 16.5 mg/kg/injection, schedule: Q04DX003 (ip), vehicle: saline with Tween-80

CCCSc1ncnc2nc(C)[nH]c12
inactive: dose: 0.39 mg/kg/injection, schedule: Q01DX009 (ip), vehicle: saline with Tween-80 100 % of control | dose: 0.78 mg/kg/injection, schedule: Q01DX009 (ip), vehicle: saline with Tween-80 109 % of control | dose: 1.56 mg/kg/injection, schedule: Q01DX009 (ip), vehicle: saline with Tween-80 100 % of control and 122 % of control | dose: 3.13 mg/kg/injection, schedule: Q01DX009 (ip), vehicle: saline with Tween-80 95 % of control and 100 % of control | [1] 103 % of control | [2] 103 % of control

O=C(Oc1ccc([N+](=O)[O-])cc1)c1ccc(C[P+](c2ccccc2)(c2ccccc2)c2ccccc2)cc1
inactive: [12] 109 % of control | [10] 104 % of control | dose: 200.0 mg/kg/injection, schedule: Q01DX009 (ip), vehicle: saline 100 % of control | [11] 100 % of control | dose: 400.0 mg/kg/injection, schedule: Q01DX009 (ip), vehicle: saline 100 % of control | [13] 95 % of control

O=C(Nc1nncs1)c1cnccn1
inactive: dose: 50.0 mg/kg/injection, schedule: Q04DX002 (ip), vehicle: saline with Tween-80 98 % of control | dose: 100.0 mg/kg/injection, schedule: Q04DX002 (ip), vehicle: saline with Tween-80 97 % of control | dose: 200.0 mg/kg/injection, schedule: Q04DX002 (ip), vehicle: saline with Tween-80 104 % of control
active: dose: 400.0 mg/kg/injection, schedule: Q04DX002 (ip), vehicle: saline with Tween-80 168 % of control

COc1cc2c(cc1OC)/C(=N\O)CCCC2
inactive: [5] 119 % of control | [6] 114 % of control | dose: 100.0 mg/kg/injection, schedule: Q04DX003 (ip), vehicle: Klucel (hydroxypropylcellulose) (HPC) 100 % of control | [8] 90 % of control | dose: 200.0 mg/kg/injection, schedule: Q04DX003 (ip), vehicle: Klucel (hydroxypropylcellulose) (HPC) 100 % of control | dose: 400.0 mg/kg/injection, schedule: Q04DX003 (ip), vehicle: Klucel (hydroxypropylcellulose) (HPC) 100 % of control

COc1ccc(/C=C/c2ccnc3ccccc23)cc1
inactive: [6] 93 % of control | [8] 111 % of control | dose: 400.0 mg/kg/injection, schedule: Q01DX009 (ip), vehicle: saline with Tween-80 93 % of control

CCCCOCCN1CCN(CCCN2c3ccccc3Sc3ccc(C(F)(F)F)cc32)CC1
inactive: [14] 111 % of control | [15] 112 % of control
active: [16] 153 % of control

NNC12CC3CC(CC(C3)C1)C2
inactive: dose: 6.25 mg/kg/injection, schedule: Q01DX009 (ip), vehicle: saline 95 % of control | dose: 6.25 mg/kg/injection, schedule: Q04DX003 (ip), vehicle: saline 102 % of control | dose: 12.5 mg/kg/injection, schedule: Q01DX009 (ip), vehicle: saline 86 % of control | [14] 100 % of control | dose: 25.0 mg/kg/injection, schedule: Q01DX009 (ip), vehicle: saline 86 % of control | [15] 98 % of control | [16] 115 % of control

CC1(NC(=O)N(CCCl)N=O)CCCC1
inactive: [9] 90 % of control
active: [7] 272 % of control
